Measured values reported in the NIST ThermoML archive (doi:10.1016/j.jct.2012.02.007).

Key:
[1] = mn = molality of the nth substance listed, in mol/kg; details: 101.3 kPa, Liquid; for speed of sound: Sing-around technique in a fixed-path interferometer; for mass density: Vibrating tube method
[2] = osmotic coefficient (dimensionless); mn = molality of the nth substance listed, in mol/kg; details: 323.15 K, Liquid, Vapor Pressure Osmometer

CCCCn1cc[n+](C)c1.N#CN=C=[N-] [1-butyl-3-methylimidazolium dicyanamide] + CCCO
[1]
Details | mass density, 293.15 K [kg/m3] | mass density, 308.15 K [kg/m3] | mass density, 323.15 K [kg/m3] | speed of sound, 293.15 K [m/s] | speed of sound, 308.15 K [m/s] | speed of sound, 323.15 K [m/s]
m1 = 0.0646 | 807.07 | 795.05 | 782.64 | 1229.5 | 1178.7 | 1128.5
m1 = 0.1004 | 808.7 | 796.71 | 784.35 | 1232.4 | 1181.7 | 1131.7
m1 = 0.154 | 811.09 | 799.15 | 786.83 | 1236.7 | 1186.2 | 1136.4
m1 = 0.2041 | 813.27 | 801.36 | 789.09 | 1240.4 | 1190 | 1140.4
m1 = 0.2521 | 815.21 | 803.31 | 791.08 | 1243.9 | 1193.4 | 1143.8
m1 = 0.5071 | 825.41 | 813.67 | 801.63 | 1261.1 | 1211.6 | 1162.8
m1 = 0.7606 | 834.72 | 823.09 | 811.21 | 1277.2 | 1228.3 | 1180.1
m1 = 1.012 | 843.22 | 831.69 | 819.94 | 1292.2 | 1243.8 | 1196.2
m1 = 1.263 | 851.11 | 839.67 | 828.03 | 1306.2 | 1258.2 | 1211.2
m1 = 1.512 | 858.43 | 847.07 | 835.54 | 1319.4 | 1271.9 | 1225.3
m1 = 1.765 | 865.25 | 853.97 | 842.54 | 1331.8 | 1284.7 | 1238.6
m1 = 2.017 | 871.65 | 860.45 | 849.11 | 1343.6 | 1297 | 1251.3
m1 = 2.52 | 883.38 | 872.29 | 861.11 | 1365.8 | 1319.7 | 1274.6
m1 = 2.826 | 889.83 | 878.84 | 867.75 | 1377.8 | 1332.3 | 1287.8
m1 = 3.488 | 902.23 | 891.37 | 880.45 | 1401.8 | 1357.1 | 1313.3

[2]
Details | osmotic coefficient
m1 = 0.0543 | 0.973
m1 = 0.0899 | 0.898
m1 = 0.1032 | 0.871
m1 = 0.2057 | 0.816
m1 = 0.3018 | 0.78
m1 = 0.4097 | 0.748
m1 = 0.5035 | 0.737
m1 = 0.8276 | 0.714
m1 = 1.24 | 0.691
m1 = 1.64 | 0.668
m1 = 2.049 | 0.646
m1 = 2.45 | 0.634
m1 = 2.837 | 0.616
m1 = 3.324 | 0.599
